From ChEMBL document CHEMBL1122656, “Synthesis and antiviral evaluation of carbocyclic analogues of ribofuranosides of 2-amino-6-substituted-purines and of 2-amino-6-substituted-8-azapurines” (1984) come the findings set out here.

Holding throughout (format): functional
For experiment [1], the system named is HEp-2. In words: In vitro inhibition of cytopathogenicity induced by HF strain of Herpes Simplex Virus (HSV-1) replicating in human epidermoid carcinoma no.2 (H.Ep-2) cells. On the technique in general: Damage to the host cells serves as the signal in cytopathic effect assays.
Experiment [2] is described as follows: Cytotoxicity to cancer cells (KB cells) in culture was determined and the effective dose that causes 50 % cytotoxicity was reported. Particulars: Homo sapiens, Cancer cell lines; read-out: ED50 (the source's name).
For experiment [3], the system named is Mus musculus. The experiment in a line: In vivo efficacy against L1210 leukemic cells, inoculated intraperitoneally in mice at schedule - q.d. 1-9. Dose 100 mg/kg. Particulars: route intraperitoneal.
The test system of experiment [4] is HEp-2. In words: In vitro inhibition of cytopathogenicity induced by Lederle Chorioallantoic strain of vaccinia virus replicating in human epidermoid carcinoma no.2 (H.Ep-2) cells.
Experiment [5] concerns Mus musculus. In words: In vivo efficacy against L1210 leukemic cells, inoculated intraperitoneally in mice at schedule - day 1. Dose 400 mg/kg. Particulars: route intraperitoneal.
The subject of experiment [6] is Mus musculus. In words: In vivo efficacy against L1210 leukemic cells, inoculated intraperitoneally in mice at schedule - q.d. 1-9. Dose 100 mg/kg*-toxic. Particulars: route intraperitoneal.
In experiment [7] the test system is Mus musculus. In words: In vivo efficacy against L1210 leukemic cells, inoculated intraperitoneally in mice at schedule - q.d. 1-9. Dose 200 mg/kg.*-toxic. Particulars: route intraperitoneal.
For experiment [8], the system named is Mus musculus. The experiment in a line: In vivo efficacy against L1210 leukemic cells, inoculated intraperitoneally in mice at schedule - q.d. 1-9. Dose 50 mg/kg. Particulars: route intraperitoneal.
For experiment [9], the system named is HEp-2. The experiment in a line: In vitro inhibition of cytopathogenicity induced by Lederle Chorioallantoic strain of vaccinia virus replicating in human epidermoid carcinoma.
The test system of experiment [10] is Mus musculus. The experiment in a line: In vivo efficacy against L1210 leukemic cells, inoculated intraperitoneally in mice at schedule - q.d. 1-9. Dose 400 mg/kg. Particulars: route intraperitoneal.
The subject of experiment [11] is Mus musculus. The experiment in a line: In vivo efficacy against L1210 leukemic cells, inoculated intraperitoneally in mice at schedule - q.d. 1-9. Dose 25 mg/kg. Particulars: route intraperitoneal.
Experiment [12] has as its system Mus musculus. The experiment in a line: In vivo efficacy against L1210 leukemic cells, inoculated intraperitoneally in mice at schedule - q.d. 1 Dose 150 mg/kg.*-Diiference in weight change(T-C)by day 5 was -5.6g at 150 mg/kg &[…] at 75 mg/kg.
Experiment [13] concerns Mus musculus. The experiment in a line: In vivo efficacy against L1210 leukemic cells, inoculated intraperitoneally in mice at schedule - q.d. 1,5,9. Dose 19 mg/kg. Particulars: route intraperitoneal.
Experiment [14] concerns Mus musculus. In words: In vivo efficacy against L1210 leukemic cells, inoculated intraperitoneally in mice at schedule - q.d. 1,5,9. Dose 38 mg/kg. Particulars: route intraperitoneal.
Experiment [15] has as its system Mus musculus. In words: In vivo efficacy against L1210 leukemic cells, inoculated intraperitoneally in mice at schedule - q.d. 1,5,9. Dose 75 mg/kg*-Diiference in weight change(T-C)by day 5 was -5.6g at 150 mg/kg &[…] at 75 mg/kg.
For experiment [16], the system named is Mus musculus. The experiment in a line: In vivo efficacy against L1210 leukemic cells, inoculated intraperitoneally in mice at schedule - q.d. 1-9. Dose 19 mg/kg*-toxic. Particulars: route intraperitoneal.
In experiment [17] the test system is Mus musculus. In words: In vivo efficacy against L1210 leukemic cells, inoculated intraperitoneally in mice at schedule - q.d. 1-9. Dose 38 mg/kg*-toxic. Particulars: route intraperitoneal.
In experiment [18] the test system is Mus musculus. The experiment in a line: In vivo efficacy against L1210 leukemic cells, inoculated intraperitoneally in mice at schedule - q.d. 1-9. Dose 9 mg/kg. Particulars: route intraperitoneal.
Experiment [19] concerns Mus musculus. In words: In vivo efficacy against L1210 leukemic cells, inoculated intraperitoneally in mice at schedule - q.d. 1. Dose 75 mg/kg*-Diiference in weight change(T-C)by day 5 was -5.6g at 150 mg/kg &[…] at 75 mg/kg.

In brackets after ≈: the same amount, converted by molar mass. Where only a bound is given, the exact number is not on record here.

`CSc1nc(N)nc2c1ncn2C1CC(CO)C(O)C1O` (stereo not given) yielded a Virus rating in the experiment on HEp-2 [1] of 0.1 VR. Besides, the EC50 in [2] was more than 100 µg/mL. For the same compound, the T/C in the experiment on Mus musculus [3] worked out at 108%.
The like results for `CSc1nc(N)nc2c1nnn2C1CC(CO)C(O)C1O` (stereo not given) were, in that order, 0 VR, more than 100 µg/mL and 94%.
For `Nc1nc(Cl)c2ncn(C3CC(CO)C(O)C3O)c2n1` (stereo not given), the figures for the MIC with HEp-2 [1] and in the experiment on HEp-2 [4] were 10 µg/mL (≈ 33.4 µM) and 20 µg/mL (≈ 66.7 µM), respectively. The figures for the Virus rating in the experiment with HEp-2 [1] and in the experiment with HEp-2 [4] were 1.7 VR and 1.2 VR, respectively. Moreover, the EC50 in experiment [2] is more than 100 µg/mL. In addition, the T/C with Mus musculus [5] was determined as 104%; in the experiment on Mus musculus [6], 85%; in the experiment on Mus musculus [7], 67%; in the experiment on Mus musculus [8], 101%.
For the compound `Nc1nc(Cl)c2nnn(C3CC(CO)C(O)C3O)c2n1` (stereo not given), in the experiment with HEp-2 [1], the MIC is 81 µg/mL (≈ 269 µM). Moreover, the Virus rating is given as 0.9 VR in the experiment with HEp-2 [1] and 0.6 VR in the experiment on HEp-2 [9]. Further, the EC50 in experiment [2] came to 8 µg/mL (≈ 26.6 µM). Further, the T/C in the experiment on Mus musculus [5] was 111%.
With `Nc1nc(S)c2ncn(C3CC(CO)C(O)C3O)c2n1` (stereo not given), the Virus rating in the experiment on HEp-2 [1] is on record as 0 VR. The EC50 in experiment [2] stood at 50 µg/mL (≈ 168 µM). In the experiment with Mus musculus [10], this compound yielded a T/C of 99%.
As to `Nc1nc(O)c2nnn(C3CC(CO)C(O)C3O)c2n1` (stereo not given), the Virus rating with HEp-2 [1] was found to be 0 VR. The EC50 in [2] is more than 100 µg/mL. In the experiment with Mus musculus [5], this compound showed a T/C of 109%.
Turning to `Nc1ncnc2c1ncn2[C@@H]1O[C@H](CO)[C@@H](O)[C@@H]1O` [VIDARABINE], in the experiment with HEp-2 [1], the MIC came out at 10 µg/mL (≈ 37.4 µM) and the Virus rating is on record as 2.2 VR.
For `Nc1nc(N)c2ncn(C3CC(CO)C(O)C3O)c2n1` (stereo not given), the MIC in the experiment on HEp-2 [1] came out at 0.3 µg/mL (≈ 1.07 µM); in the experiment on HEp-2 [9], 2.3 µg/mL (≈ 8.21 µM). Further, the Virus rating in the experiment with HEp-2 [1] came out at 4.6 VR; in the experiment on HEp-2 [9] it was 3.8 VR. In addition, in [2], the EC50 was found to be 19 µg/mL (≈ 67.8 µM). Further, the T/C with Mus musculus [6] was determined as 70%; with Mus musculus [7], 67%; in the experiment with Mus musculus [11] it was 102%; in the experiment on Mus musculus [8], 89%.
In the experiment on HEp-2 [1], `Nc1nc(N)c2nnn(C3CC(CO)C(O)C3O)c2n1` (stereo not given) displayed an MIC of 100 µg/mL (≈ 356 µM) and a Virus rating of 1.4 VR. Further, the EC50 in [2] is more than 100 µg/mL. In the experiment on Mus musculus [5], this compound displayed a T/C of 97%.
For the compound `CNc1nc(N)nc2c1ncn2C1CC(CO)C(O)C1O` (stereo not given), in the experiment with HEp-2 [1], the MIC stood at 320 µg/mL (≈ 1090 µM) and the Virus rating was determined as 1.3 VR. Further, the EC50 in [2] worked out at 18 µg/mL (≈ 61.2 µM).
`Nc1nc(O)c2ncn(C3CC(CO)C(O)C3O)c2n1` (stereo not given): the Virus rating with HEp-2 [1] and with HEp-2 [9] was 0 VR each time. Also, the EC50 in experiment [2] is more than 100 µg/mL. Also, the T/C in the experiment with Mus musculus [12] came out at 75%; in the experiment with Mus musculus [13], 94%; in the experiment with Mus musculus [14], 92%; in the experiment on Mus musculus [15] it was 70%; in the experiment on Mus musculus [16], 83%; with Mus musculus [17], 71%. Also, the T/C in the experiment on Mus musculus [18] worked out at 101%; in the experiment on Mus musculus [19], 88%.

As usually defined, the T/C is the ratio of treated to control.
